Experimental data: US20100166781A1, “HAT ACETYLATION PROMOTERS AND USES OF COMPOSITIONS THEREOF IN PROMOTING IMMUNOGENICITY” (Tapimmune, Inc., priority 2008, published 2010)
“Also recorded” adds a separate entry of the source. Like-named read-outs stand apart in the source and are kept apart here.

Key:
tapasin = assay: RT-PCR analysis of APM components: tapasin; conditions: HPV-positive carcinoma cell lines, particularly TAP-deficient cells
surface H-2K^b = surface H-2K^b (Mus musculus, UniProt P01901); assay: Flow cytometric analysis of surface H-2K^b expression; assay type: cell-based, murine
surface H-2K^b, sequence (P01901 whole entry, looked up): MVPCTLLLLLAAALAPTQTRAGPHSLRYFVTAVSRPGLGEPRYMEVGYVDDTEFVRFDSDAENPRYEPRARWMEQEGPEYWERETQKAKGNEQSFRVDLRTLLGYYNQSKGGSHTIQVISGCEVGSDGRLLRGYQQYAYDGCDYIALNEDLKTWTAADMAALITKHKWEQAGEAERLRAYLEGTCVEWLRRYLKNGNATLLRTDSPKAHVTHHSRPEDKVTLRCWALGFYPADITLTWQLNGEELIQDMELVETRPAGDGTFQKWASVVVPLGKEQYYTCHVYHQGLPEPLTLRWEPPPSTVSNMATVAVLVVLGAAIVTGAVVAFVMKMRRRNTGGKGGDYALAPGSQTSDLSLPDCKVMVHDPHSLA
Description: Cells untreated (shaded areas) or treated with 100 ng/ml TSA (thick lines), or 50 ng/ml IFN-γ (thin lines), were stained with PE-conjugated anti-H-2K^bmAb. Data are representatives of three experiments.

TAP-1 promoter [1] = assay: Chromatin immunoprecipitation with anti-RNA pol II antibody, real-time PCR of TAP-1 promoter; assay type: cell-based, murine
Description: (§1) As the low level of histone H3 acetylation in TAP-1 promoter seems to contribute to TAP-1 deficiency in carcinomas, a further investigation was conducted to determine whether treatment of TAP-deficient carcinoma cells with TSA would increase the TAP-1 expression in the cells. […] Relative RNA pol II or acetyl-histone H3 levels were determined as the ratio of copy numbers of the eluted TAP-1 promoter and copy numbers of the corresponding inputs. The smallest ratio was arbitrarily determined as 1. Columns, average of three to six experiments; bars, SEM. *P<0.05 compared with cells that expressed higher MHC class I in the same assay.

TAP-1 = assay: RT-PCR and Western blot analysis of TAP-1 expression; assay type: cell-based, murine
Description: Fifty micrograms of proteins per sample were separated through 6% (p300, CBP and TAP-1) or 15% (β-actin and acetyl-histone H3) SDS-PAGE. Proteins were transferred to a nitrocellulose membrane (Bio-rad, Hercules, Calif.). Blots were blocked with 5% skim milk in PBS and incubated with appropriate Ab dilutions. […] Secondary Ab used was HRP-conjugated goat anti-rabbit secondary Ab (Jackson Immunoresearch Lab., West Grove, Pa.). For the loading controls, anti β-actin mouse monoclonal Ab (Sigma) was used, followed by HRP-conjugated goat anti-mouse secondary Ab (Pierce, Rockford, Ill.). Blots were developed using Lumi-light reagents (Pierce).
Western blot analysis of TAP-1 expression was performed using lysate of cells that were pre-treated with 20 to 200 ng/ml TSA for 24 to 48 hours, and representative data from cells treated with 100 ng/ml TSA for 24 hours (PA and LMD) or 48 hours (TC-1, D11 and A9) are shown in FIG. 4A.

LMP-2 = assay: RT-PCR analysis of APM components: LMP-2; conditions: HPV-positive carcinoma cell lines, particularly TAP-deficient cells
[2] = tested on: VSV-infected cancer cells; assay type: cell-based, murine; conditions: for enhancement of CTL killing / enhancement of levels of killing: treatment 24 hours prior to VSV infection; for enhancement of CTL killing: effector:target 22:1
A9 tumour = assay: A9 tumor growth in immunodeficient Rag1 mice; assay type: in vivo; conditions: TSA treatment
Description: A9 tumor growth was suppressed in C57B1/6 mice treated daily for 20 days with 500 μg/kg of TSA (black bars) as compared to those treated with DMSO vehicle control (white bars). However, TSA treatment had no affect on A9 tumour growth in Ragl^“7” mice.

TAP-1 promoter [3] = assay: Luciferase assay in cells stably transfected with pTAP-1-luc construct; assay type: cell-based, murine
Source text: A plasmid containing an EGFP gene driven by the TAP-1 promoter (pTAP-1-EGFP) was constructed as described previously. A similar construct containing a luciferase gene driven by the TAP-1 promoter (pTAP-1-luc) was created by inserting the TAP-1 promoter between the Sac I and BgI II sites of pGL4.14[luc2/Hygro] vector (Promega, Madison, Wis.). Several truncated TAP-1 promoter constructs were also made by cloning its 5′-end truncations into pGL4.14[luc2/Hygro] vector. Primers were used for PCR amplifications of the full TAP-1 promoter and its truncations.
TC-1, D11, A9, PA and LMD cells were transfected with the TAP-1 promoter constructs or the promoterless pGL4.14[luc2/Hygro] vector using ExGen 500 in vitro Transfection Reagent (Fermentas). Transient transfectants were analyzed between 12-72 hours after transfection. To obtain stable transfectants, the transfected cells were selected for 3 weeks in the presence of the following concentrations of Hygromycin B (Sigma): 550 ng/ml for TC-1 cells, 250 ng/ml for D11, A9 and LMD cells, 200 ng/ml for PA cells.
Relative luciferase activity (RLA) in transient transfectants was assessed by dual luciferase assay (Promega) within 12-72 hours after transfection. RLA in stable transfectants (3 weeks-1 month post-transfection) was assessed by Bright-Glo luciferase assay (Promega), and determined by subtracting the results with corresponding values obtained from transfection with promoterless pGL4.14[luc2/Hygro] vector alone and by further normalizing the values with copy number of plasmids integrated into the genome of each stable transfectant.

A9 tumor = A9 tumor growth in C57BL/6 syngeneic mice; assay type: in vivo, C57BL/6 mice; conditions: A9 cells s.c., 500 μg/kg daily i.p. for 20 days from day 7, versus DMSO control
Description: A total of 3×10^5 cells of TC-1 or A9 in PBS were injected subcutaneously into seven-week-old female C57BL/6 syngeneic mice (Charles River, St. Constant, QC). Mice were assigned to 3 groups of 4 animals. TSA was dissolved in DMSO to a concentration of 0.2 mg/ml. Daily treatment with 50 ul TSA (500 μg/kg) or DMSO (vehicle control) was administered via intraperitoneal injection for 20 days, starting on day 7 after injection with tumor cells. Mice were weighed weekly, and their behavior and food intake were monitored throughout the course of the experiment. Tumors were measured 3 times a week and tumor volume was calculated using the formula: tumor volume=length×width×height×π/6. The study period was determined by the size of the tumors in the A9 group treated with DMSO vehicle control.
TC-1 and A9 cells were cultured in vitro and were passaged less than 8 times before 3×10^5 of each group of the cells were injected subcutaneously into 7 week-old female C57BL/6 syngeneic mice. Daily treatment with TSA or DMSO vehicle control began on day 7 after cells injection, as the animals started to grow palpable A9 tumors. […] No tumor was detected beyond 1 month after injection with less than 3×10^5 TC-1 tumor cells (data not shown).

TAP-1 promoter [4] = assay: Chromatin immunoprecipitation with anti-acetyl-histone H3 antibody, real-time PCR of TAP-1 promoter; assay type: cell-based, murine
Description: as §1

TAP-2 = assay: RT-PCR analysis of APM components: TAP-2; conditions: HPV-positive carcinoma cell lines, particularly TAP-deficient cells
TAP-1 promoter [5] = assay: Chromatin immunoprecipitation with anti-CBP antibody, real-time PCR of 5'-end of TAP-1 promoter; conditions: LMD, D11 and A9 cells, IFN-γ treatment

Molecule: CC(/C=C/C(=O)NO)=C\[C@@H](C)C(=O)c1ccc(N(C)C)cc1 [TSA, trichostatin A]
- expression of tapasin (tapasin): up-regulation
- increase of surface expression H-2K^b (surface H-2K^b; MHC class I-deficient cells, 100 ng/ml TSA): approximately 10 fold
- surface H-2K^b levels (surface H-2K^b; PA and TC-1 cells (originally high surface H-2K)): remained the same
- level of RNA pol II binding to TAP-1 promoter (TAP-1 promoter [1]; TSA treatment, TAP-deficient cells of HPV-positive and prostate carcinoma models): to similar levels as in TAP-expressing cells
- recruitment of RNA pol II complex to the TAP-1 promoter (TAP-1 promoter [1]; TSA treatment, most cell lines, particularly TAP-deficient cells): enhanced
- Optimal dose for optimal induction of TAP-1 expression (TAP-1; 24 hours in LMD, CMT.64 and B16, 48 hours in D11 and A9): 100 ng/mL
- expression of TAP-1 (TAP-1; RT-PCR and Western blot, 100 ng/ml for 24 h (PA, LMD) or 48 h (TC-1, D11, A9)): up-regulated
- TAP-1 expression upon increasing the dose (TAP-1; Western blot, TAP-deficient cells, 20 to 200 ng/ml for 24 to 48 hours): increasing levels of TAP-1 expression
- expression of LMP-2 (LMP-2): up-regulation
- enhancement of CTL killing ([2]; VSV-infected A9 cells): ~7 fold
- enhancement of levels of killing ([2]; VSV-infected B16 cells): 20 fold
- enhancement of levels of killing ([2]; VSV-infected CMT.64 cells): 5 fold
- enhancement of CTL killing ([2]; VSV-infected D11 cells): ~6 fold
- enhancement of CTL killing ([2]; VSV-infected TC-1 cells): approximately 1.4 fold
- tumour growth (A9 tumour): no affect
- TAP-1 promoter activity (TAP-1 promoter [3]; HPV-positive carcinoma model, TAP-deficient cells): to similar levels as in TAP-expressing cells
- TAP-1 promoter activity (luc expression) (TAP-1 promoter [3]; TAP-deficient cells stably transfected with pTAP-1-luc): increased significantly
- TAP-1 promoter activity (TAP-1 promoter [3]; prostate carcinoma model, LMD cells): statistically significant improvement
- tumor growth (A9 tumor): suppressed; also recorded: slower
- levels of acetyl-histone H3 in TAP-1 promoter (TAP-1 promoter [4]; TSA treatment, all cell lines tested): did not significantly alter
- expression of TAP-2 (TAP-2): up-regulation

B1: IFN-γ: potent inducer of TAP-1 and surface MHC class I expression in cancer cells, used as positive control (protein, UniProt P01579 24-161, looked up)
Interferon gamma: QDPYVKEAENLKKYFNAGHSDVADNGTLFLGILKNWKEESDRKIMQSQIVSFYFKLFKNFKDDQSIQKSVETIKEDMNVKFFNSNKKKRDDFEKLTNYSVTDLNVQRKAIHELIQVMAELSPAAKTGKRKRSQMLFRG
- CBP binding to TAP-1 promoter (TAP-1 promoter [5]): increase
- surface H-2K^b expression (surface H-2K^b; all cell lines, 50 ng/ml IFN-γ): increased
- level of RNA pol II in TAP-1 promoter (TAP-1 promoter [1]; IFN-γ treatment): increased
- expression of LMP-2 (LMP-2): inducible
- level of killing by CTL ([2]; all VSV-infected cell lines, IFN-γ treatment): maximal induction
- level of acetyl-histone H3 in TAP-1 promoter (TAP-1 promoter [4]; IFN-γ treatment): increased
- histone H3 acetylation in TAP-1 promoter (TAP-1 promoter [4]; TAP-deficient cells, IFN-γ compared with TSA): to much higher levels than TSA did
- expression of TAP-2 (TAP-2): inducible
